Data taken from ChEMBL document CHEMBL1201862, “PubChem BioAssay data set” (2004).
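The compound was tested at five concentrations on cells cultured in 96-well plates, with a 48-hour exposure period. GI50 = concentration required for 50% inhibition of growth.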 Activity calls are given as the source filed them. No stated cut-off is given here; in the data, active = GI50 up to about 1.1 µM and inactive = higher.

Key:
Experiment in all cases: NCI anticancer screen, dose series, 48 h
[1] = tested on: SW-620
[2] = tested on: DU-145
[3] = tested on: SNB-19
[4] = tested on: A498
[5] = tested on: LOX IMVI
[6] = tested on: OVCAR-8
[7] = tested on: OVCAR-3
[8] = tested on: SK-OV-3
[9] = tested on: IGROV-1
[10] = tested on: NCI-H23
[11] = tested on: BT-549
[12] = tested on: PC-3
[13] = tested on: U-251
[14] = tested on: MDA-MB-231
[15] = tested on: HOP-62
[16] = tested on: TK-10
[17] = tested on: MOLT-4
[18] = tested on: OVCAR-4
[19] = tested on: HOP-92
[20] = tested on: ACHN
[21] = tested on: CAKI-1
[22] = tested on: HT-29
[23] = tested on: SN12C
[24] = tested on: SK-MEL-5
[25] = tested on: M14
[26] = tested on: NCI-H460
[27] = tested on: K562
[28] = tested on: UO-31
[29] = tested on: UACC-257
[30] = tested on: NCI/ADR-RES
[31] = tested on: SR
[32] = tested on: OVCAR-5
[33] = tested on: MDA-N
[34] = tested on: Malme-3M
[35] = tested on: RXF 393
[36] = tested on: HCT-15
[37] = tested on: SF-268
[38] = tested on: UACC-62
[39] = tested on: SF-295
[40] = tested on: MDA-MB-435
[41] = tested on: SK-MEL-2
[42] = tested on: A549
[43] = tested on: EKVX
[44] = tested on: NCI-H522
[45] = tested on: HCT-116
[46] = tested on: SF-539
[47] = tested on: SK-MEL-28
[48] = tested on: COLO 205
[49] = tested on: RPMI-8226
[50] = tested on: SNB-75
[51] = tested on: 786-0
[52] = tested on: T47D
[53] = tested on: CCRF-CEM
[54] = tested on: KM12
[55] = tested on: MCF7
[56] = tested on: Hs-578T
[57] = tested on: HCC 2998
[58] = tested on: HL-60
[59] = tested on: NCI-H226

Measured: GI50

O=C(O)c1nnsc1COCc1ccccc1
> 100 µM: [36]
inactive: [1] > 100 µM | [2] > 100 µM | [3] > 100 µM | [4] > 100 µM | [5] > 100 µM | [6] > 100 µM | [7] > 100 µM | [8] > 100 µM | [9] > 100 µM | [10] > 100 µM | [11] > 100 µM | [12] > 100 µM | [13] > 100 µM | [14] > 100 µM | [15] > 100 µM | [16] > 100 µM | [17] > 100 µM | [18] > 100 µM | [19] > 100 µM | [20] > 100 µM | [21] > 100 µM | [22] > 100 µM | [23] > 100 µM | [24] > 100 µM | [25] > 100 µM | [26] > 100 µM | [27] > 100 µM | [28] > 100 µM | [29] > 100 µM | [30] > 100 µM | [31] > 100 µM | [32] > 100 µM | [33] > 100 µM | [34] > 100 µM | [35] > 100 µM | [37] > 100 µM | [38] > 100 µM | [39] > 100 µM | [40] > 100 µM | [41] > 100 µM | [42] > 100 µM | [43] > 100 µM | [44] > 100 µM | [45] > 100 µM | [46] > 100 µM | [47] > 100 µM | [48] > 100 µM | [49] > 100 µM | [50] > 100 µM | [51] > 100 µM | [52] > 100 µM | [53] > 100 µM | [54] > 100 µM | [55] > 100 µM | [56] > 100 µM

CC(=O)Nc1ccc(CNc2cc(=O)[nH]c(=O)[nH]2)cc1
> 100 µM: [36]
inactive: [1] > 100 µM | [2] > 100 µM | [3] > 100 µM | [5] > 100 µM | [57] > 100 µM | [6] > 100 µM | [7] > 100 µM | [8] > 100 µM | [9] > 100 µM | [10] > 100 µM | [11] > 100 µM | [12] > 100 µM | [13] > 100 µM | [14] > 100 µM | [15] > 100 µM | [16] > 100 µM | [17] > 100 µM | [18] > 100 µM | [19] > 100 µM | [20] > 100 µM | [21] > 100 µM | [22] > 100 µM | [23] > 100 µM | [24] > 100 µM | [58] > 100 µM | [25] > 100 µM | [26] > 100 µM | [27] > 100 µM | [28] > 100 µM | [29] > 100 µM | [30] > 100 µM | [31] > 100 µM | [59] > 100 µM | [32] > 100 µM | [33] > 100 µM | [34] > 100 µM | [35] > 100 µM | [37] > 100 µM | [38] > 100 µM | [39] > 100 µM | [40] > 100 µM | [41] > 100 µM | [42] > 100 µM | [43] > 100 µM | [44] > 100 µM | [45] > 100 µM | [46] > 100 µM | [47] > 100 µM | [48] > 100 µM | [49] > 100 µM | [50] > 100 µM | [51] > 100 µM | [52] > 100 µM | [53] > 100 µM | [54] > 100 µM | [55] > 100 µM | [56] > 100 µM

Nc1ccc(-c2nc3ccccc3s2)cc1I
44.3 µM: [36]
active: [7] 0.0614 µM | [9] 0.0107 µM | [16] 0.0521 µM | [59] 0.221 µM | [32] 0.0817 µM | [55] < 0.0116 µM
inactive: [1] > 92.7 µM | [2] > 100 µM | [3] 54.2 µM | [4] 28.6 µM | [5] 44.8 µM | [57] 5.06 µM | [6] > 96.2 µM | [8] > 65.6 µM | [10] 64.9 µM | [11] > 78 µM | [12] 41.5 µM | [13] 34.4 µM | [14] > 69.7 µM | [15] 37.3 µM | [17] 28.4 µM | [18] > 7.93 µM | [20] > 87.1 µM | [21] > 100 µM | [22] 66.2 µM | [23] 35.6 µM | [24] 58.7 µM | [58] 24.2 µM | [25] 81.8 µM | [26] 38.5 µM | [27] 39.2 µM | [28] 14.2 µM | [29] > 100 µM | [30] > 100 µM | [31] 42 µM | [33] > 100 µM | [34] 99.3 µM | [35] 29.7 µM | [37] > 33.5 µM | [38] > 73.6 µM | [39] 74.3 µM | [40] 97.9 µM | [41] > 100 µM | [42] > 78 µM | [43] 14.9 µM | [44] 31.1 µM | [46] 77.8 µM | [47] > 100 µM | [48] 36 µM | [49] > 84.1 µM | [50] 41.9 µM | [51] 43.9 µM | [52] 18.7 µM | [53] 30.1 µM | [54] 52.5 µM | [56] > 100 µM
